Biological target: T1, GCase (Homo sapiens, UniProt P04062)
T1 construct: endogenous in cells; host or cells: HeLa cells
T1 sequence (P04062 40-536): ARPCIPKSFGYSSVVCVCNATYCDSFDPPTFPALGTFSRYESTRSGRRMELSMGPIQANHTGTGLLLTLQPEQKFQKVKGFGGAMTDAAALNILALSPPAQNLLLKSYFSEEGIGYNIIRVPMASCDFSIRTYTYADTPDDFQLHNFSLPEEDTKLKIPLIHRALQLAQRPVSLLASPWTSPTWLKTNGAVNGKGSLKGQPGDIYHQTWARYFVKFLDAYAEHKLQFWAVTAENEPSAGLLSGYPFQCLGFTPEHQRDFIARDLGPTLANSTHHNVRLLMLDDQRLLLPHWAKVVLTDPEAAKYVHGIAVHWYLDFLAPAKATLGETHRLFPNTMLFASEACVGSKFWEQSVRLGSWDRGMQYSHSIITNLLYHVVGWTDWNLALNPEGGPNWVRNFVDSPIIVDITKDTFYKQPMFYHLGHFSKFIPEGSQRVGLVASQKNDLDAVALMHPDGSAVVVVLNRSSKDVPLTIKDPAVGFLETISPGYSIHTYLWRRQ
Assay: activation of GCase in a live cell PFB assay in HELA cells
Format: cell-based
Settings: EC50 given as range classes
Experimental: Exemplary compounds were evaluated for activation of GCase in a live cell PFB assay in HELA cells (essentially as described in Ysselstein et al., “LRRK2 kinase activity regulates lysosomal glucocerebrosidase in neurons derived from Parkinson's disease patients” Nature Communications (2019) 10:5570). […] EC50 ranges: A: <10 μM; B: >10-50 μM; C: >50-100 μM; D: >100 μM.

Structure (SMILES)	EC50 [µM]
O=C1N(c2cnc(C(F)(F)F)cn2)C(=O)C2(CCN(c3cnc4cnn(CC(F)F)c4n3)CC2)N1Cc1cc(F)cc(F)c1 [Cmpd 821]	< 10
O=S(=O)(c1cccc(Cl)c1)N1CC2(CCN(c3cnc4cnn(CC(F)F)c4n3)C2)C1 [Cmpd 418]	< 10
O=C(c1ccc(OC(F)F)cc1)N1CC2(CCN(c3cnc4cnn(CC(F)F)c4n3)C2)C1 [Cmpd 387]	10 to 50
Cc1nc(N2CC3(CCN(c4ccc5c(C)nn(CC(F)F)c5n4)CC3)C2)cc(C(F)(F)F)n1 [Cmpd 624]	< 10
COc1ncc(N2CCC3(CCN(c4cnc5cnn(CC(F)F)c5n4)CC3)C2)c(C(F)(F)F)n1 [Cmpd 788]	10 to 50
FC(F)(F)c1ncc(N2CC3(CCN(c4cncc(-c5nncs5)n4)C3)C2)cn1 [Cmpd 430]	< 10
COc1cccc(C(=O)N2CC3(CCN(c4cnc5cnn(CC(F)F)c5n4)C3)C2)c1 [Cmpd 380]	< 10
FC(F)(F)c1cnc(N2CCC3(CCN(c4cncc(-c5nncs5)n4)CC3)C2)cn1 [Cmpd 824]	10 to 50
O=C1N(c2ccc(C(F)(F)F)cn2)CCC12CC1CCC(C2)N1c1cnc2cnn(CC(F)F)c2n1 (stereo not shown) [Cmpd 798]	10 to 50
Cc1nn(CC(F)F)c2nc(N3CCC4(CN(c5ccnc(C(F)(F)F)c5)C4)C3=O)cnc12 [Cmpd 1001]	< 10
FC(F)Cn1ncc2ncc(N3CCOC4(CCN(c5cncc(C(F)(F)F)c5)CC4)C3)nc21 [Cmpd 210]	< 10

Same assay, conditions: activation of GCase, EC50 ranges

Structure (SMILES)	EC50 [µM]
O=C1N(c2cc(C(F)(F)F)ccn2)C(=O)C2(CCN(c3cnc4cnn(CC(F)F)c4n3)CC2)N1Cc1cccc(F)c1F [Cmpd 717]	< 10
CCC1N(c2ccnc(C(F)(F)F)n2)C(=O)CC12CCN(c1cnc3cnn(CC(F)F)c3n1)CC2 (stereo not shown) [Cmpd 904]	< 10
Cc1nn(CC(F)F)c2nc(N3CCC4(CCN(c5cnc(C(F)(F)F)nc5)C4)C3)cnc12 (stereo not shown) [Cmpd 530]	< 10
CCc1nc(N2CC3(CCN(c4cnc5cnn(CC(F)F)c5n4)C3)C2)cc(C(F)(F)F)n1 [Cmpd 1089]	10 to 50
O=C(c1ccc(C(F)(F)F)cn1)N1CC2(CCN(c3cnc4cnn(CC(F)F)c4n3)C2)C1 [Cmpd 323]	> 100
FC(F)Cn1ncc2ncc(N3CCC4(C3)CN(c3ncc(Cl)cn3)C4)nc21 [Cmpd 438]	10 to 50
O=C(c1ccc(C(F)(F)F)cn1)N1CCC2(CCN(c3cnc4cnn(CC(F)F)c4n3)CC2)C1 [Cmpd 314]	> 100
Cc1nn(CC(F)F)c2nc(N3CCC4(CC3)CC(=O)N(c3ccnc(C(F)(F)F)n3)C4)cnc12 [Cmpd 898]	< 10
FC(F)Cn1ncc2ncc(N3CC4(CCN(c5ccnc(C(F)(F)F)c5)CC4)C3)nc21 [Compound 117, 2-[1-(2,2-difluoroethyl)-1H-pyrazolo[3,4-b]pyrazin-6-yl]-7-[2-(trifluoromethyl)pyridin-4-yl]-2,7-diazaspiro[3.5]nonane]	< 10
FC(F)Cn1ncc2ncc(N3CCC4(CCN(c5ccc(C(F)(F)F)nc5)C4)CC3)nc21 [Compound 147, 8-[1-(2,2-difluoroethyl)-1H-pyrazolo[3,4-b]pyrazin-6-yl]-2-[6-(trifluoromethyl)pyridin-3-yl]-2,8-diazaspiro[4.5]decane]	< 10
Cc1cc(C(F)(F)F)cnc1N1CCC2(CCN(c3cnc4cnn(CC(F)F)c4n3)CC2)C1=O [Cmpd 775]	> 100
O=C1N(c2cccnc2C(F)(F)F)CCC12CCN(c1cnc3cnn(CC(F)F)c3n1)CC2 [Compound 135, 8-[1-(2,2-difluoroethyl)-1H-pyrazolo[3,4-b]pyrazin-6-yl]-2-[2-(trifluoromethyl)pyridin-3-yl]-2,8-diazaspiro[4.5]decan-1-one]	50 to 100
O=C1CC2(CCN1c1cnc3cnn(CC(F)F)c3n1)CN(c1ccc(C(F)(F)F)nc1)C2 [Cmpd 913]	10 to 50
O=C1N(c2ccc(C(F)(F)F)nc2)CCC12CCN(c1cnc3cnn(CC(F)F)c3n1)CC2 [Cmpd 673]	< 10
Cc1nc(N2CCC3(C2)CN(c2ncc4cnn(CC(F)(F)F)c4n2)C3)cc(C(F)(F)F)n1 [Cmpd 554]	10 to 50
Cc1nc(N2CCC3(CCN(c4ncc5c(C)nn(CC(F)F)c5n4)CC3)C2)cc(C(F)(F)F)n1 [Cmpd 576]	10 to 50

Structure (SMILES)	EC50 [µM]
O=C1N(Cc2cncc(C(F)(F)F)c2)CCC12CCN(c1cnc3cnn(CC(F)F)c3n1)CC2 [Cmpd 332]	< 10
O=C(c1cnc(C(F)(F)F)nc1)N1CCC2(CCN(c3cnc4cnn(CC(F)F)c4n3)CC2)C1 [Cmpd 324]	10 to 50
COc1nn(CC(F)F)c2nc(N3CCC4(CC3)CC(=O)N(c3ccc(C(F)(F)F)nc3)C4)ncc12 [Cmpd 948]	10 to 50
FC(F)(F)OCCn1ncc2ncc(N3CCC4(CN(c5ccnc(C(F)(F)F)c5)C4)C3)nc21 [Cmpd 1034]	< 10
FC(F)Cn1ncc2ncc(N3CCC4(CC3)CC(Oc3cccc(C(F)(F)F)n3)C4)nc21 [Compound 84, 7-[1-(2,2-difluoroethyl)-1H-pyrazolo[3,4-b]pyrazin-6-yl]-2-{[6-(trifluoromethyl)pyridin-2-yl]oxy}-7-azaspiro[3.5]nonane]	10 to 50
O=C1N(c2cccc(C(F)(F)F)n2)CCCC12CN(c1cnc3cnn(CC(F)F)c3n1)C2 [Compound 115, 2-[1-(2,2-difluoroethyl)-1H-pyrazolo[3,4-b]pyrazin-6-yl]-6-[6-(trifluoromethyl)pyridin-2-yl]-2,6-diazaspiro[3.5]nonan-5-one]	10 to 50
Cn1c(N2CCC3(CCN(c4ncc(C(F)(F)F)cn4)C3)CC2)nc2c(cnn2C2COC2)c1=O [Cmpd 1058]	10 to 50
FC(F)Cn1ncc2ncc(N3CC4(CN(c5cc(C(F)(F)F)ccn5)CCO4)C3)nc21 [Compound 171, 2-[1-(2,2-difluoroethyl)-1H-pyrazolo[3,4-b]pyrazin-6-yl]-8-[4-(trifluoromethyl)pyridin-2-yl]-5-oxa-2,8-diazaspiro[3.5]nonane]	10 to 50
O=C1N(c2cccc(C(F)(F)F)n2)CCC12CCN(c1cnc3cnn(CC(F)F)c3n1)CC2 [Compound 102, 8-[1-(2,2-difluoroethyl)-1H-pyrazolo[3,4-b]pyrazin-6-yl]-2-[6-(trifluoromethyl)pyridin-2-yl]-2,8-diazaspiro[4.5]decan-1-one]	10 to 50
FC(F)(F)Cn1ncc2ncc(N3CCC4(CCN(c5cc(C(F)(F)F)ccn5)CC4)C3)nc21 [Compound 139, 2-[1-(2,2,2-trifluoroethyl)-1H-pyrazolo[3,4-b]pyrazin-6-yl]-8-[4-(trifluoromethyl)pyridin-2-yl]-2,8-diazaspiro[4.5]decane]	10 to 50
O=C1CC2(CCN(c3cnc4cnn(C5COC5)c4n3)CC2)CN1c1cc(C(F)(F)F)ccn1 [Cmpd 284]	50 to 100
CC(c1ccc(Cl)cn1)N1CC2(CCN(c3cnc4cnn(CC(F)F)c4n3)CC2)CC1=O (stereo not shown) [Cmpd 967]	< 10
Cc1nc(N2CCC3(CCN(c4cnc5cnn(CC(F)F)c5n4)CC3)C2)cc(C(F)(F)F)n1 [Cmpd 511]	< 10
FC(F)Cn1ncc2ncc(N3CC4(CC(COc5cccc(C(F)(F)F)n5)C4)C3)nc21 [Compound 134, 2-[1-(2,2-difluoroethyl)-1H-pyrazolo[3,4-b]pyrazin-6-yl]-6-({[6-(trifluoromethyl)pyridin-2-yl]oxy}methyl)-2-azaspiro[3.3]heptane]	< 10
O=C1CC2(CCN(c3cnc4cnn(CC(F)F)c4n3)CC2)CN1Cc1cnc(C(F)(F)F)s1 [Cmpd 369]	10 to 50
FC(F)Cn1ncc2cnc(N3CCC4(CN(c5ccnc(C(F)(F)F)c5)C4)C3)cc21 [Cmpd 1072]	10 to 50
